Values after ≈ are worked out from the molar mass of the structure shown.
Tests used:
Assay type in all cases: cell-based
S. pyogenes [1] = assay: MIC determination, initial screen, S. pyogenes; conditions: Streptococcus pyogenes, ATCC14289; Table 1; ATCC 14289 (initial screen); 24 h, A595
Description: (§1) The Streptococcus pyogenes strains, Klebsiella pneumoniae, Escherichia coli, Staphylococcus aureus, Enterococcus faecalis used in the antibacterial activity studies ATCC 14289, 49399, 13883, 25922, 13709, 29212, respectively, were obtained from the American Type Culture Collection, Rockville, Md. The strain E. coli imp- is a mutant strain of wild type E. coli with increased outer membrane permeability. In initial screens, E. coli imp- and S. pyrogenes (ATCC 14289) were used. The E. coli imp-strain was grown in LB broth, and the S. pyogenes strain was grown in Todd-Hewitt broth. Interesting compounds were further evaluated in the tier II screens against other bacterial screens. S. aureus was grown in trypticase soy broth, E. faecalis in Todd-Hewitt broth, wild type E. coli and K. pneumoniae, in nutrient broth. All bacterial were grown at 37° C.
(§2) The assays were carried out in 150 μL volume in duplicate in 96-well clear flat-bottom plates. The bacterial suspension from an overnight culture growth in appropriate medium was added to a solution of test compound in 4% DMSO in water. Final bacterial inoculum was approximately 10^5 -10^6 CFU/well. The percent growth of the bacteria in test wells relative to that observed for a well containing no compound was determined by measuring absorbance at 595 nm (A595) after 24 h. […] Both ampicillin and tetracycline were used as antibiotic-positive controls in each screening assay for S. pyogenes, E. coli imp-, E. coli, S. aureus, E. faecalis, K. pneumoniae and P. vulgaris. Ciprofloxacin was used as an antibiotic positive control in each screening assay for P. aeruginosa.

E. coli imp- = assay: MIC determination, initial screen, E. coli imp-; conditions: Escherichia coli, 24 h, read-out: MIC E. coli imp
Description: as §1, §2

K. pneumoniae = assay: MIC determination, tier II screen, K. pneumoniae (#13883); conditions: Klebsiella pneumoniae; Table 2; 24 h, A595
Description: as §1, §2

E. coli = assay: MIC determination, tier II screen, wild type E. coli (#25922); conditions: Escherichia coli, Table 2, 24 h, A595
Description: as §1, §2

S. pyogenes [2] = assay: MIC determination, tier II screen, S. pyogenes (#49399); conditions: Streptococcus pyogenes; Table 2; 24 h, A595
Description: as §1, §2

S. aureus = assay: MIC determination, tier II screen, S. aureus (#13709); conditions: Staphylococcus aureus; Table 2; 24 h, A595
Description: as §1, §2

E. faecalis = assay: MIC determination, tier II screen, E. faecalis (#29212); conditions: Enterococcus faecalis; Table 2; 24 h, A595
Description: as §1, §2

Structure (SMILES)	MIC (S. pyogenes [1]) [µM]	MIC (E. coli imp-) [µM]	MIC (K. pneumoniae) [µM]	MIC (E. coli) [µM]	MIC (S. pyogenes [2]) [µM]	MIC (S. aureus) [µM]	MIC (E. faecalis) [µM]
COc1cc2nc(N3CCC(Nc4nc(N)c(C(=O)O)nc4Cl)CC3)nc(N)c2cc1OC [Compound 18, 3-Amino-5-[1-(4-amino-6,7-dimethoxyquinazolin-2-yl)piperidin-4-ylamino]-6-chloropyrazine-2-carboxylic acid]	> 100	> 100					
COc1cc2nc(N3CCC(Nc4ccc(C(=O)OC(C)(C)C)cc4)CC3)nc(Nc3ccc(C)cc3)c2cc1OC [Compound 16, 4-[1-(6,7-Dimethoxy-4-p-tolylaminoquinazolin-2-yl)piperidin-4-ylamino]benzoic acid tert-butyl ester]	2.5 to 5 (≈ 1.42 to 2.85 µg/mL)	10 to 20 (≈ 5.7 to 11.4 µg/mL)					
Nc1nc(N2CCC(Nc3ccc(C(=O)O)cc3)CC2)nc2ccccc12 [Compound 32, 4-[1-(4-Aminoquinazolin-2-yl)piperidin-4-ylamino]benzoic acid]	> 100	> 100					
COc1cc2nc(N3CCC(Nc4ccc(C(=O)O)cc4[N+](=O)[O-])CC3)nc(N)c2cc1OC [Compound 21, 4-[1-(4-Amino-6,7-dimethoxyquinazolin-2-yl)piperidin-4-ylamino]-3-nitrobenzoic acid]	> 20	> 20					
COc1cc2nc(N3CCC(Nc4ccc(C(=O)OC(C)(C)C)cc4)CC3)[nH]c(=O)c2cc1OC [Compound 15, 4-[1-(6,7-Dimethoxy-4-oxo-3,4-dihydroquinazolin-2-yl)piperidin-4-ylamino]benzoic acid tert-butyl ester]	> 100	> 100					
COC(=O)c1ccc(NC2CCN(c3nc(N)c4cc(OC)c(OC)cc4n3)CC2)cc1 [Compound 4, 4-[1-(4-Amino-6,7-dimethoxy-quinazolin-2-yl)-piperidin-4-ylamino]-benzoic acid methyl ester]	5 to 25 (≈ 2.19 to 10.9 µg/mL)	5 to 25 (≈ 2.19 to 10.9 µg/mL)	> 100	> 100	5 to 25 (≈ 2.19 to 10.9 µg/mL)	> 100	20 to 40 (≈ 8.75 to 17.5 µg/mL)
COC(=O)c1ccc(NC2CCN(c3nc(N)c4cc(OC)c(OC)cc4n3)CC2)nc1 [Compound 3, 6-[1-(4-Amino-6,7-dimethoxy-quinazolin-2-yl)-piperidin-4-ylamino]-nicotinicacid methyl ester]	25 to 50 (≈ 11 to 21.9 µg/mL)	> 50					
COc1cc2nc(N3CCC(Nc4ccc(C(=O)O)cc4)CC3)nc(OC)c2cc1OC [Compound 29, 4-[1-(4,6,7-Trimethoxyquinazolin-2-yl)piperidin-4-ylamino]benzoic acid]	> 20	> 20					
COc1cc2nc(N3CCC(Nc4cnc(C(=O)O)c(N)n4)CC3)nc(N)c2cc1OC [Compound 19, 3-Amino-5-[1-(4-amino-6,7-dimethoxyquinazolin-2-yl)piperidin-4-ylamino]pyrazine-2-carboxylic acid]	> 25	> 25					
COc1cc2nc(N3CCC(Nc4ccc(C(=O)OC(C)(C)C)cc4)CC3)nc(OC)c2cc1OC [Compound 14, 4-[1-(4,6,7-Trimethoxyquinazolin-2-yl)piperidin-4-ylamino]benzoic acid tert-butyl ester]	< 100	< 100					
COc1cc2cnc(N3CCC(Nc4ccc(C(=O)OC(C)(C)C)cc4)CC3)nc2cc1OC [Compound 13, 4-[1-(6,7-Dimethoxyquinazolin-2-yl)piperidin-4-ylamino]benzoic acid tert-butyl ester]	> 20	> 20					
COc1cc2nc(N3CCC(Nc4ccc(C(=O)OC(C)(C)C)cc4[N+](=O)[O-])CC3)nc(N)c2cc1OC [Compound 6, 4-[1-(4-Amino-6,7-dimethoxyquinazolin-2-yl)piperidin-4-ylamino]-3-nitrobenzoic acid tert-butyl ester]	50 to 100 (≈ 26.2 to 52.5 µg/mL)	25 to 50 (≈ 13.1 to 26.2 µg/mL)					
COc1cc2cnc(N3CCC(Nc4ccc(C(=O)O)cc4)CC3)nc2cc1OC [Compound 28, 4-[1-(6,7-Dimethoxyquinazolin-2-yl)piperidin-4-ylamino]benzoic acid]	> 20	> 20					
CC(C)(C)OC(=O)c1ccc(NC2CCN(c3nc(N)c4ccccc4n3)CC2)cc1 [Compound 17, 4-[1-(4-Aminoquinazolin-2-yl)piperidin-4-ylamino]benzoic acid tert-butyl ester]	< 100	< 100					
COc1cc2nc(N3CCC(Nc4ccc(C(=O)O)cn4)CC3)nc(N)c2cc1OC [Compound 20, 6-[1-(4-Amino-6,7-dimethoxyquinazolin-2-yl)piperidin-4-ylamino]nicotinic acid]	> 20	> 50					
COC(=O)c1ncc(NC2CCN(c3nc(N)c4cc(OC)c(OC)cc4n3)CC2)nc1N [Compound 2, 3-Amino-5-[1-(4-amino-6,7-dimethoxy-quinazolin-2-yl)-piperidin-4-ylamino]-pyrazine-2-carboxylic acid methyl ester]	> 50	> 50					
COc1cc2nc(N3CCC(Nc4ccc(C(=O)O)cc4)CC3)[nH]c(=O)c2cc1OC [Compound 30, 4-[1-(6,7-Dimethoxy-4-oxo-3,4-dihydroquinazolin-2-yl)piperidin-4-ylamino]benzoic acid]	> 20	> 20					
COc1cc2nc(N3CCC(Nc4ccc(C(=O)O)cc4)CC3)nc(N)c2cc1OC [Compound 22, 4-[1-(4-Amino-6,7-dimethoxyquinazolin-2-yl)piperidin-4-ylamino]benzoic acid]	> 25	0.4 to 2 (≈ 0.169 to 0.847 µg/mL)	6 to 12 (≈ 2.54 to 5.08 µg/mL)	60 to 80 (≈ 25.4 to 33.9 µg/mL)	> 25	6 to 12 (≈ 2.54 to 5.08 µg/mL)	> 100
COC(=O)c1nc(Cl)c(NC2CCN(c3nc(N)c4cc(OC)c(OC)cc4n3)CC2)nc1N [Compound 1, 3-Amino-5-[1-(4-amino-6,7-dimethoxy-quinazolin-2-yl)-piperidin-4-ylamino]-6-chloro-pyrazine-2-carboxylic acid methyl ester]	12 to 25 (≈ 5.87 to 12.2 µg/mL)	> 25					
COc1cc2nc(N3CCC(Nc4ccc(C(=O)O)cc4)CC3)nc(Nc3ccc(C)cc3)c2cc1OC [Compound 31, 4-[1-(6,7-Dimethoxy-4-p-tolylaminoquinazolin-2-yl)piperidin-4-ylamino]benzoic acid]	> 20	> 20					
COc1cc2nc(N3CCC(Nc4ccc(C(=O)OC(C)(C)C)cc4)CC3)nc(N)c2cc1OC [Compound 5, 4-[1-(4-Amino-6,7-dimethoxy-quinazolin-2-yl)-piperidin-4-ylamino]-benzoic acid tert-butyl ester]	3 to 6 (≈ 1.44 to 2.88 µg/mL)	6 to 12 (≈ 2.88 to 5.75 µg/mL)	> 100	> 100	6 to 12 (≈ 2.88 to 5.75 µg/mL)	> 100	6 to 12 (≈ 2.88 to 5.75 µg/mL)

From patent US6156758A, “Antibacterial quinazoline compounds” (Isis Pharmaceuticals, Inc., priority 1999, dated 2000)
